According to PubChem BioAssay AID1996:
≈ marks a conversion by molar mass, not a printed value.

Settings: buffer; pH 7.4; 200.0 µM
Cc1c(Cl)cnc(NC(=O)COC(=O)[C@@H](NC(=O)c2ccco2)C(C)C)c1Cl gave a solubility kinetic of over 0.0642 mg/mL.
Compound O=C(NCC1CCCCC1)c1ccc(Cl)nc1 has a solubility kinetic of over 0.0379 mg/mL.
CCCCCn1c(=O)c(C(=O)OCC)c(Cl)c2ccccc21 showed a solubility kinetic of 0.0065 mg/mL (≈ 20.2 µM).
Work on CC(C)c1ccc(NC(=O)CN2CCN(c3ccccn3)CC2)cc1 yielded a solubility kinetic of 0.001 mg/mL (≈ 2.95 µM).
Work on CC(C)(C)CN1CCN(Cc2cccnc2)CC1CCO (stereo not drawn) yielded a solubility kinetic of over 0.0437 mg/mL.
CN(Cc1cnccn1)Cc1nc(Cc2cccc(F)c2)no1 showed a solubility kinetic of 0.0463 mg/mL (≈ 148 µM).
In the case of O=C(NC1CCCC1)c1ccccc1OCc1ccccc1, the solubility kinetic is reported as 0.015 mg/mL (≈ 50.8 µM).
Work on O=C(O)C1Cc2ccccc2CN1C(=O)CCl (stereo not drawn) yielded a solubility kinetic of over 0.0381 mg/mL.
With CCC(=O)OCC(=O)N=c1sccn1Cc1ccc(C)cc1 the solubility kinetic was 0.0364 mg/mL (≈ 114 µM).
For O=C(O)CCc1nc2cc(Cl)ccc2n(Cc2ccccc2)c1=O, the solubility kinetic was over 0.0514 mg/mL.
COc1cccc(NC(=O)CNC(=O)c2ccc([N+](=O)[O-])cc2)c1 gave a solubility kinetic of 0.0029 mg/mL (≈ 8.81 µM).
In the case of CC(Cc1ccccc1)NC(=S)CN1CCCC1=S (stereo not drawn), the solubility kinetic is reported as 0.0389 mg/mL (≈ 133 µM).
Compound Cc1ccc2nc(-c3ccncc3)cc(C(=O)N3CCOCC3)c2c1 has a solubility kinetic of over 0.05 mg/mL.
Work on CNC(=O)c1cc(C(=O)c2ccccc2Br)c[nH]1 yielded a solubility kinetic of over 0.0461 mg/mL.
With CC(C)(CCC(=S)N1CCOCC1)C1CCCCC1 the solubility kinetic was 0.0041 mg/mL (≈ 14.5 µM).
For COc1ccc(OC)c(C(=O)c2coc3ccc(O)c(CN(C)C)c23)c1.Cl, the solubility kinetic was over 0.0588 mg/mL.
CCOC(=O)c1ccc2c(c1)N(CC)C(=O)c1ccccc1S2 showed a solubility kinetic of 0.0132 mg/mL (≈ 40.3 µM).
With Cc1cc(C)nc(Nc2ccc(O)cc2)n1 the solubility kinetic was over 0.0323 mg/mL.
In the case of N#Cc1ccc(OCC(=O)Nc2ccc(N3CCCC3)cc2)cc1, the solubility kinetic is reported as 0.0059 mg/mL (≈ 18.4 µM).
For Cc1cc(C)c2cc(C(=O)Nc3ccc(C)c(F)c3)[nH]c2c1, the solubility kinetic was 0.0008 mg/mL (≈ 2.7 µM).
OC(CNc1nc(C(F)(F)F)nc2ccccc12)c1ccccc1 (stereo not drawn) gave a solubility kinetic of 0.0063 mg/mL (≈ 18.9 µM).
COCCn1c(-c2ccc(F)cc2)nc2oc3cc(OC)ccc3c(=O)c2c1=O gave a solubility kinetic of 0.0211 mg/mL (≈ 53.2 µM).
In the case of O=C(/C=C/c1ccc(Cl)cc1)Nc1nccs1, the solubility kinetic is reported as 0.0011 mg/mL (≈ 4.16 µM).
In the case of Cc1c(C(=O)OCC(=O)NC(=O)NC2CCCCC2)cccc1[N+](=O)[O-], the solubility kinetic is reported as 0.0023 mg/mL (≈ 6.33 µM).
Work on Cc1ccc2cc(NC(=O)c3ccc(C(C)(C)C)cc3)ccc2n1 yielded a solubility kinetic of under 0.0003 mg/mL.
CCn1c(C)nc2cc(S(=O)(=O)Nc3ccc(C)cc3)ccc21 gave a solubility kinetic of over 0.0494 mg/mL.
For NC(=O)c1ccc(NC(=O)Nc2ccc3c(c2)OCO3)cc1, the solubility kinetic was 0.0038 mg/mL (≈ 12.7 µM).
CCOC(=O)C1=C(C)C(c2ccc(OC)cc2)NC(=O)N1 (stereo not drawn) showed a solubility kinetic of over 0.0435 mg/mL.
For CCc1cccc(C)c1NC(=O)CSc1nnc(C)o1, the solubility kinetic was over 0.0437 mg/mL.
In the case of Cc1ccc(C#N)c(SCCN2CCCCC2)n1, the solubility kinetic is reported as 0.0324 mg/mL (≈ 124 µM).
For COc1ccc(Cc2c(O)nc(SCC(C)C)[nH]c2=O)cc1, the solubility kinetic was 0.0472 mg/mL (≈ 147 µM).
Compound O=C(O)/C=C/C(=O)Nc1ccc2c(c1)C(=O)c1ccccc1C2=O has a solubility kinetic of over 0.0482 mg/mL.
O=c1[nH]c2ccccc2nc1Cc1ccc(Cl)cc1 gave a solubility kinetic of 0.0009 mg/mL (≈ 3.32 µM).
Compound O=C(/C=C/c1ccccc1)Nc1cc(NC(=O)/C=C/c2ccccc2)cc(C(=O)O)c1 has a solubility kinetic of 0.0527 mg/mL (≈ 128 µM).
CCOCCn1c(CC)nc2ccccc21 gave a solubility kinetic of over 0.0327 mg/mL.
CCOc1ccc(CCNC(=O)c2cc(C)on2)cc1OCC gave a solubility kinetic of over 0.0478 mg/mL.
With CN(C(=O)COC(=O)c1ccc(Br)c(S(=O)(=O)N2CCOCC2)c1)C1CCCCC1 the solubility kinetic was over 0.0755 mg/mL.
In the case of O=C(c1c(F)c(F)c(F)c(F)c1F)N1CCN(Cc2ccc3c(c2)OCO3)CC1, the solubility kinetic is reported as 0.0023 mg/mL (≈ 5.55 µM).
In the case of CN(Cc1cccc(Cl)c1Cl)C(=O)c1cc(S(=O)(=O)N2CCOCC2)ccc1F, the solubility kinetic is reported as 0.0052 mg/mL (≈ 11.3 µM).
Work on O=C(Nc1cccc(C(F)(F)F)c1)c1cncs1 yielded a solubility kinetic of over 0.0408 mg/mL.
Compound O=[N+]([O-])c1ccccc1S(=O)(=O)Nc1cccc2cccnc12 has a solubility kinetic of 0.0018 mg/mL (≈ 5.47 µM).
In the case of COc1cccc(CN2CCN(C3CCOCC3)CC2CCO)c1 (stereo not drawn), the solubility kinetic is reported as 0.0463 mg/mL (≈ 138 µM).
With Cc1ccccc1N1CCN(Cc2ccc(Br)o2)CC1 the solubility kinetic was 0.0043 mg/mL (≈ 12.8 µM).
O=C(O)CNC(=S)N(Cc1ccccc1F)C1CCCCC1 gave a solubility kinetic of over 0.0487 mg/mL.
For Cn1c(=O)c2cc3c(nc2n(C)c1=O)CC(c1ccccc1)CC3=O (stereo not drawn), the solubility kinetic was 0.0005 mg/mL (≈ 1.49 µM).
In the case of Nc1nc(Oc2ccc(F)cc2)c(Br)c(=O)[nH]1, the solubility kinetic is reported as over 0.045 mg/mL.
Cc1[nH]c2ccccc2c1/C=C(\C#N)C(=O)NCC1CCCO1 (stereo not drawn) gave a solubility kinetic of 0.0206 mg/mL (≈ 66.6 µM).
Cc1ccc(CNC(=O)CCc2cn(C)c3ccccc23)cc1 showed a solubility kinetic of 0.0051 mg/mL (≈ 16.6 µM).
In the case of C=CCn1c(O)c(C(C)=Nc2ccc(C(=O)O)cc2)c(=O)[nH]c1=O, the solubility kinetic is reported as over 0.0494 mg/mL.
Compound Cc1cccc(NC(=O)COC(=O)CN2CCCCCC2=O)c1C has a solubility kinetic of over 0.0499 mg/mL.
With Cn1cccc1C(=O)OCC(=O)N1CCc2ccccc21 the solubility kinetic was 0.0028 mg/mL (≈ 9.85 µM).
For O=C(O)c1ccccc1C(=O)Nc1ccc(Oc2cccc(C(F)(F)F)c2)nc1, the solubility kinetic was 0.0602 mg/mL (≈ 150 µM).
O=C(CSc1nc(C2CC2)nc2ccccc12)Nc1ccccc1 showed a solubility kinetic of under 0.0002 mg/mL.
With Cc1cc(/C(N)=N/OC(=O)c2cccc(Cl)c2)no1 the solubility kinetic was 0.0022 mg/mL (≈ 7.87 µM).
Cc1ccc(CNC(=O)C2CC(=O)N(C3CCCCCC3)C2)cc1 (stereo not drawn) showed a solubility kinetic of 0.0488 mg/mL (≈ 149 µM).
With CN1CCN(CCc2nc3cc(NC(=O)c4ccco4)ccc3n2C)CC1 the solubility kinetic was over 0.0551 mg/mL.
Compound Cc1cc(C)cc(C(=O)OCC(=O)NCc2ccco2)c1 has a solubility kinetic of over 0.0431 mg/mL.
O=C(Nc1cccc(S(=O)(=O)N2CCCCC2)c1)c1cc(=O)[nH]c2ccccc12 showed a solubility kinetic of 0.0092 mg/mL (≈ 22.4 µM).
